Legend:
[1] = system: BMDCs; assay: Mouse bone marrow derived dendritic cell maturation (flow cytometry); type: cell-based; conditions: FIG. 8
Procedure: Femurs and tibiae were harvested from female C57BL/6 mice and extra muscle tissues were removed. Bones were disinfected in 70% ethanol, then rinsed with RPMI-1640 medium, and both ends were cut to flush out the bone marrow with RPMI-1640 medium using 26 G needle syringes. To disperse cell clumps, bone marrow suspension was pipetted in-and-out several times and washed twice with RPMI-1640 medium by centrifugation. […] At day 0, after cell counting, the leukocytes were seeded at a concentration of 2×10^6 cells/10 ml R10 medium containing 200 U/ml rmGM-CSF in sterile […] Petri dish and incubated at 37° C. with 5% CO2. At day 3, another 10 ml of R10 medium containing 200 U/ml rmGM-CSF was added. At days 6, one half of the supernatant was taken out and centrifuged to collect cell pellet, which was resuspend in original plate with 10 ml of R10 medium containing 200 U/ml GM-CSF. At day 8, non-adherent cells were collected by gentle pipetting and centrifuged at 300 g for 5 min. To obtain purer dendritic cells, the population of macrophages (F4/80^high) was removed with Anti-F4/80 MicroBeads UltraPure (130-110-443, Miltenyi Biotec, Bergisch Gladbach, Germany) following the manufacturer's instructions. Briefly, cell pellet was resuspended and mixed well in MACS buffer with Anti-F4/80 MicroBeads UltraPure. This mixture was incubated for 15 min in the dark in 4° C. After washing cells with MACS buffer, cells were resuspended in MACS buffer, filtered with 30 μm nylon mesh, and added to the MACS buffer rinsed column to separate F4/80^+ cells. Unlabeled cells were collected and washed with R10 medium. To freeze the cells, cell pellet was counted and resuspended at a concentration 1×10^7 cell in 2 ml CELLBANKER2 (#11891, ZENOAQ) per cryopreservation vial and stored at −80 degree Celsius.
BMDCs were thawed for the DC maturation experiments. These cells were seeded at 1×10^6 cells/2 ml in R10 medium containing 200 U/ml rmGM-CSF in wells of a 6-well tissue culture dish and cultured to recover the cell viability at 37° C. with 5% CO2. After 6 hr, BMDCs were treated with various fragments of mTREML1 protein and cultured in 37° C. with 5% CO2. On the next day, resuspended cells were collected and analyzed by flow cytometry.
Cells were centrifuged at 1800 rpm for 3 min in PBS containing 1% FBS and 0.1% sodium azide (PBSBA), and then divided at a concentration of 1×10^5 cells/100 ul PBSBA in flow tube. Before staining the surface marker of DC, cells were treated with mouse Fc blocker to avoid antibody non-specific binding at room temperature for 30 min. […] After PBSBA washing, samples were analyzed using the CytoFlex flow cytometer with the CytExpert software.

[2] = system: CT26 colon cancer cells; assay: CT26 colon carcinoma model, tumor vaccine with adjuvant; type: in vivo, BALB/c mice; conditions: combined with tumor antigen 5E-GP70-15/aluminum mixture, s.c. on days 6 and 13; FIG. 9B
Procedure: To test TREML1 ECD or its stalk as a vaccine adjuvant or immune booster, we use a CT26 colon carcinoma animal model. […] Briefly, CT26 colon cancer cells (3×10^5 cells) were injected subcutaneously into BALB/c mice on day 0. When the tumor grows to 30-100 mm^3 on day 6, tumor vaccines (tumor antigen 5E-GP70-15/aluminum mixture with or without mouse TREML1 stalk; 100 μL/mouse each time) were injected subcutaneously. The vaccinations were repeated on days 13. Tumor volumes were measured every 3-4 days. […] A DNA vaccine containing the gp70 gene has been used to induce protective immunity against CT26 cells. (J. Takeda et al., “Anti-tumor immunity against CT26 colon tumor in mice immunized with plasmid DNA encoding beta-galactosidase fused to an envelope protein of endogenous retrovirus,” Cell Immunol., (2000), 204(1): 11-18).
For the establishment of syngeneic murine colon cancer models, BALB/c mice were subcutaneously injected in the back with 3×10^5 CT26 cells per mouse. When the volume of the inoculated tumor reached 30-100 mm^3, mice were randomly divided into cohorts for different treatments. […] During each animal study, tumor dimensions were monitored with caliper measurements, and the tumor volumes were calculated using the equation: […], wherein length is the longest diameter of the tumor and the width is the shortest diameter. […]

[3] = biological target: T1, mMD2 (Mus musculus, UniProt Q9JHF9); assay: Solid phase binding assay, mMD2 to immobilized mTREML1 stalk; conditions: stalk coated 5 ug/ml; FIG. 3B
T1 sequence (Q9JHF9 19-160): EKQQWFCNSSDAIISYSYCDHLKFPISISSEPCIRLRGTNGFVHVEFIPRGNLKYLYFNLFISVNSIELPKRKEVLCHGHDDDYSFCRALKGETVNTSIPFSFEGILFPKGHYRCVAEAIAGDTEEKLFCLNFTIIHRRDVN
Procedure: For TREML1 or mTREML1 stalk binding to human or mouse MD2 protein, TREML1 stalk or mTREML1 stalk (5 ug/ml in PBS) was coated separately on a 96-well plate. Recombinant hTLR4, hMD2, hCD14, or mMD2 was each serially diluted and added to the plates. Anti-His tag antibody-HRP was used as a detection antibody to detect the protein binding.

“mTREML1 stalk: mouse TREML1 stalk polypeptide, SEQ ID NO:4, EGEEAEDEKETYRIGTGSLLEDPSLDPSASAGPHEFRRRENSIP, chemically synthesized (listed as Mus musculus)” was tested, and the “dendritic cell maturation effect compared with TNF-α” value [1] was “significantly stronger than those of TNF-α”, the “dendritic cell maturation (DC maturation markers CD40, CD86, CD80, MHC II)” value ([1]; analyzed the next day) was “can trigger dendritic cell maturation” and the “tumor volume, vaccine with mTREML1 stalk as adjuvant” value [2] was “dramatic reduction in the tumor volumes”. For the same substance, the “mouse MD2 binding to immobilized mTREML1 stalk” value [3] was “can bind to the immobilized TREML1 stalk and mTREML1 stalk”.
